We go through 20 compounds from patent US6794386B2, “β-amino acid compounds as integrin antagonists” (Bayer Aktiengesellschaft, priority 2000, dated 2004).

The target of this test is T1, VLA-4 (Homo sapiens, UniProt P05556+P13612).
T1 construct: host or cells: Jurkat clone E6-1
Kind of test: Adhesion of Jurkat cells to immobilized VCAM-1 (domains 1-3). Set-up: scale not given here. The format is cell-based. The conditions noted are these: adhesion of CFSE-labeled Jurkat cells to recombinant human VCAM-1 (domains 1-3) coated plates, compounds as yielded by solid phase synthesis, purity about 40-90%. The procedure, abridged:
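CFSE-labelled Jurkat E6-1 cells in Tris buffer pH 7.4 with 2 mM MnCl2 were added to wells coated with insect-cell-expressed human VCAM-1 domains 1-3 (0.5 μg/ml coating solution); labelled cells were incubated for 30 min at 37 °C with the VLA-4 inhibitor.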

Read-outs that look alike come from different tables or passages of the source.

T1 sequence (P13612 34-1032): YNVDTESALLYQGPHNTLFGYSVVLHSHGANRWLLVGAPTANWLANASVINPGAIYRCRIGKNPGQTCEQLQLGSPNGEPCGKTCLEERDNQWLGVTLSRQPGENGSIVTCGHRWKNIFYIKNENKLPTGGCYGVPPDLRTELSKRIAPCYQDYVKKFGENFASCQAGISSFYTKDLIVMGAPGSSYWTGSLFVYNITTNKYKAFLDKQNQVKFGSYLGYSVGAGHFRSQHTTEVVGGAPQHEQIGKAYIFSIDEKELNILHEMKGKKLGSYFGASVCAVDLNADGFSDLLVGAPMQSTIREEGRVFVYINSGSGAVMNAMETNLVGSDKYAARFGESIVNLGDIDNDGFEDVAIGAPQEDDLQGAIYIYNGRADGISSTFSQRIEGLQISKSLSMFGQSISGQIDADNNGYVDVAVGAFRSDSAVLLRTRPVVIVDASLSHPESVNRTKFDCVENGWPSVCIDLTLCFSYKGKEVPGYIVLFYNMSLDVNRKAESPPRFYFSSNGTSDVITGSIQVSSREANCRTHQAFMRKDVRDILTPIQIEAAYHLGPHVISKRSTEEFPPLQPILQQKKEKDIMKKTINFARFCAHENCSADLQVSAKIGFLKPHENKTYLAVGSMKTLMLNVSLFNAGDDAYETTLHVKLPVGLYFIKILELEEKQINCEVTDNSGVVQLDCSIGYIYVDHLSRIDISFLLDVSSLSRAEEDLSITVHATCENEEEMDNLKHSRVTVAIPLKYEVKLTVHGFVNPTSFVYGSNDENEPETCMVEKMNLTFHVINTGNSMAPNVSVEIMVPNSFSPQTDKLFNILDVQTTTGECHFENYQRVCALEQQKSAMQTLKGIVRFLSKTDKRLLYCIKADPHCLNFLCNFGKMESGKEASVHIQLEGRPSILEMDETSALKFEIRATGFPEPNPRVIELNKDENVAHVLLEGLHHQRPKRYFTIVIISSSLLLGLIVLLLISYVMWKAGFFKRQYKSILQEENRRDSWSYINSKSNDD
T1 sequence (P05556 21-798): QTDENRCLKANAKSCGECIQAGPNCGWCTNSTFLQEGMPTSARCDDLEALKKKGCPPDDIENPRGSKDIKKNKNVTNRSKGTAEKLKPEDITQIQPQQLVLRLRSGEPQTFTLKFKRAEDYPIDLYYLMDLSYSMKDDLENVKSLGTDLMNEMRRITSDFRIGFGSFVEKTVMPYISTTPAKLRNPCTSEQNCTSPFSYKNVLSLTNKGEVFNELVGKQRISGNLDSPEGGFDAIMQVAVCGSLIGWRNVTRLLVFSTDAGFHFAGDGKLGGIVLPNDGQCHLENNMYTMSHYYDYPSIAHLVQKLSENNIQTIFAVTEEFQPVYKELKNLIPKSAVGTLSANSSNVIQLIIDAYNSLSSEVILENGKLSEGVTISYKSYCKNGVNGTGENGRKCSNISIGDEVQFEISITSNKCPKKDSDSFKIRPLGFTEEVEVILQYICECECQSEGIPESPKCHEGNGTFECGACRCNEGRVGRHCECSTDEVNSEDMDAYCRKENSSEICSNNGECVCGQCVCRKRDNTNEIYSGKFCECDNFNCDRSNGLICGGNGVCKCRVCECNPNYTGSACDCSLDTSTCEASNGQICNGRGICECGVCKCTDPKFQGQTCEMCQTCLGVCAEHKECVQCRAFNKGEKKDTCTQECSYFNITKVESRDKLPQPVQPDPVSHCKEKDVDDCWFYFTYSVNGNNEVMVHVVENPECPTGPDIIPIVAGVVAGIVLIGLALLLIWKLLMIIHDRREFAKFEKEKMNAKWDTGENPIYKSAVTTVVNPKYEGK

For the compound `CC1(C)C2CCC1(CS(=O)(=O)N1CCCC(C(=O)N[C@@H](Cc3ccc(-c4cc(Cl)ccc4Cl)cc3)C(=O)O)C1)C(=O)C2` (some centres unmarked) [Example 1.103], the IC50 (commonly the concentration that inhibits the measured activity by half) is given as “C-D”.

Turning to `Cc1ccc(S(=O)(=O)N2CCCC(C(=O)N[C@@H](Cc3ccc(-c4cc(Cl)ccc4Cl)cc3)C(=O)O)C2)cc1` (some centres unmarked) [Example 1.104], under “read-out: IC50”, the half-maximal inhibitory concentration (IC50) was not above 500 nM.

For `COC(=O)c1ccccc1S(=O)(=O)N1CCCC(C(=O)N[C@@H](Cc2ccc(-c3cc(Cl)ccc3Cl)cc2)C(=O)O)C1` (some centres unmarked) [Example 1.105], the half-maximal inhibitory concentration (IC50) result is “C-D”.

Regarding `O=C(N[C@@H](Cc1ccc(-c2cc(Cl)ccc2Cl)cc1)C(=O)O)C1CCCN(S(=O)(=O)c2ccc3ccccc3c2)C1` (some centres unmarked) [Example 1.106], the IC50 result is on record as “C-D”.

Turning to `O=C(N[C@@H](Cc1ccc(-c2cc(Cl)ccc2Cl)cc1)C(=O)O)C1CCCN(S(=O)(=O)c2c(Cl)cccc2Cl)C1` (some centres unmarked) [Example 1.107], the IC50 entry is recorded as “C-D”.

Take `COc1ccc(S(=O)(=O)N2CCCC(C(=O)N[C@@H](Cc3ccc(-c4cc(Cl)ccc4Cl)cc3)C(=O)O)C2)cc1OC` (some centres unmarked) [Example 1.108]: the half-maximal inhibitory concentration (IC50) result is listed as “C-D”.

On to `O=C(N[C@@H](Cc1ccc(-c2cc(Cl)ccc2Cl)cc1)C(=O)O)C1CCCN(S(=O)(=O)c2ccccc2C(F)(F)F)C1` (some centres unmarked) [Example 1.109], for which the IC50 entry is recorded as “C-D”.

For `COc1ccc(Cl)cc1S(=O)(=O)N1CCCC(C(=O)N[C@@H](Cc2ccc(-c3cc(Cl)ccc3Cl)cc2)C(=O)O)C1` (some centres unmarked) [Example 1.110], the IC50 entry is recorded as “C-D”.

With `O=C(N[C@@H](Cc1ccc(-c2cc(Cl)ccc2Cl)cc1)C(=O)O)C1CCCN(S(=O)(=O)c2cc(Cl)cc(Cl)c2)C1` (some centres unmarked) [Example 1.111], the IC50 result is given as “C-D”.

Consider `O=C(N[C@@H](Cc1ccc(-c2cc(Cl)ccc2Cl)cc1)C(=O)O)C1CCCN(c2ncnc(NCc3ccccn3)c2F)C1` (some centres unmarked) [Example 2.1], for which the half-maximal inhibitory concentration (IC50) (read-out: IC50) was not above 500 nM.

As to `O=C(N[C@@H](Cc1ccc(-c2cc(Cl)ccc2Cl)cc1)C(=O)O)C1CCCN(c2ncnc(N3CCNCC3)c2F)C1` (stereo partly drawn) [Example 2.2, (2S)-3-(2′,5′-dichloro[1,1′-biphenyl]-4-yl)-2-[({1-[5-fluoro-6-(1-piperazinyl)-4-pyrimidinyl]-3-piperidinyl}carbonyl)amino]propanoic acid], the 50% inhibitory concentration (IC50) (read-out: IC50) is not above 500 nM.

For `O=C(N[C@@H](Cc1ccc(-c2cc(Cl)ccc2Cl)cc1)C(=O)O)C1CCCN(c2ncnc(N3CCOCC3)c2F)C1` (stereo partly drawn) [Example 2.3, (2S)-3-(2′,5′-dichloro[1,1′-biphenyl]-4-yl)-2-[({1-[5-fluoro-6-(4-morpholinyl)-4-pyrimidinyl]-3-piperidinyl}carbonyl)amino]propanoic acid], the concentration for half-maximal inhibition (IC50) (read-out: IC50) is not above 500 nM.

As for `Cc1ccc(-c2ccc(C[C@H](NC(=O)C3CCCN(c4ncnc(NCc5ccccn5)c4F)C3)C(=O)O)cc2)cc1` (some centres unmarked) [Example 2.4], the IC50 (read-out: IC50) fell in the range of 2000 to 10000 nM.

As to `Cc1ccc(-c2ccc(C[C@H](NC(=O)C3CCCN(c4ncnc(NC5CCCCC5)c4F)C3)C(=O)O)cc2)cc1` (some centres unmarked) [Example 2.5], the half-maximal inhibitory concentration (IC50) result is listed as “C-D”.

In the case of `Cc1ccc(-c2ccc(C[C@H](NC(=O)C3CCCN(c4ncnc(N5CCCCC5)c4F)C3)C(=O)O)cc2)cc1` (some centres unmarked) [Example 2.6], the IC50 entry is on record as “C-D”.

As to `Cc1ccc(-c2ccc(C[C@H](NC(=O)C3CCCN(c4ncnc(N5CCOCC5)c4F)C3)C(=O)O)cc2)cc1` (some centres unmarked) [Example 2.7], the IC50 result is on record as “C-D”.

On to `Cc1ccc(-c2ccc(C[C@H](NC(=O)C3CCCN(c4ncnc(N(C)Cc5ccccc5)c4F)C3)C(=O)O)cc2)cc1` (some centres unmarked) [Example 2.8], for which the 50% inhibitory concentration (IC50) entry was “C-D”.

Turning to `Cc1ccc(-c2ccc(C[C@H](NC(=O)C3CCCN(c4ncnc(N5CCNCC5)c4F)C3)C(=O)O)cc2)cc1` (some centres unmarked) [Example 2.9], the IC50 result is “B-C”.

Consider `CCCNc1ncnc(N2CCCC(C(=O)N[C@@H](Cc3ccc(-c4ccc(C)cc4)cc3)C(=O)O)C2)c1F` (some centres unmarked) [Example 2.10], for which the half-maximal inhibitory concentration (IC50) result is listed as “C-D”.

Regarding `Cc1ccc(-c2ccc(C[C@H](NC(=O)C3CCCN(c4ncnc(NC5Cc6ccccc6C5)c4F)C3)C(=O)O)cc2)cc1` (some centres unmarked) [Example 2.11], the 50% inhibitory concentration (IC50) entry was “C-D”.
